From ChEMBL document CHEMBL5523706, “Structure-based drug design of DNA minor groove binders and evaluation of their antibacterial and anticancer properties” (Eur J Med Chem, 2024)
Values after ≈ are worked out from the molar mass of the structure shown. Active and inactive are the calls of the source. The rule behind the calls is not given here.

Assays:
NHDF = assay: Cytotoxicity against human HDF cells assessed as reduction in cell viability at 50 uM incubated for 24 hrs by MTT assay; assay type: toxicity, cell-based
[1] = test system: Panel NCI-60 (60 carcinoma cell lines); assay: Antitumor activity against human NCI-60 cells assessed as inhibition of cell growth at 10 uM incubated for 48 hrs by SRB assay; assay type: functional
[2] = Dissociation constant, pKa of the compound; assay type: physicochemical
Bacillus cereus [3] = assay: Antibacterial activity against Bacillus cereus assessed as reduction in bacteria-mediated cytopathogenicity pretreated with bacteria followed by incubation with human cells; assay type: functional
Escherichia coli [4] = assay: Bactericidal activity against Escherichia coli K1 MTCC 710859 assessed as reduction in bacterial viability at 100 uM incubated for 2 hrs in autoclaved distilled water followed by culturing on agar for overnight; assay type: functional; settings: for inhibition at 100 µM: K1 MTCC 710859, 2 h
Escherichia coli [5] = assay: Bactericidal activity against Escherichia coli K1 MTCC 710859 assessed as reduction in bacterial viability incubated for 2 hrs in autoclaved distilled water followed by culturing on agar for overnight; assay type: functional; settings: K1 MTCC 710859, 2 h
Streptococcus pneumoniae [6] = assay: Bactericidal activity against Streptococcus pneumoniae ATCC 13883 assessed as reduction in bacterial viability incubated for 2 hrs in autoclaved distilled water followed by culturing on agar for overnight; assay type: functional; settings: ATCC 13883, 2 h
Salmonella enterica [7] = assay: Antibacterial activity against Salmonella enterica assessed as reduction in bacteria-mediated cytopathogenicity pretreated with bacteria followed by incubation with human cells; assay type: functional
Streptococcus pneumoniae [8] = assay: Bactericidal activity against Streptococcus pneumoniae ATCC 13883 assessed as reduction in bacterial viability at 100 uM incubated for 2 hrs in autoclaved distilled water followed by culturing on agar for overnight; assay type: functional; settings: for inhibition at 100 µM: ATCC 13883, 2 h
Salmonella enterica [9] = assay: Bactericidal activity against Salmonella enterica ATCC 14028 assessed as reduction in bacterial viability at 100 uM incubated for 2 hrs in autoclaved distilled water followed by culturing on agar for overnight; assay type: functional; settings: ATCC 14028, 2 h
DNA [10] = assay: Binding affinity to minor groove of d(5'-GCGACTAGTCGC3')2 duplex DNA (unknown origin) assessed as change in melting temperature at 2 equiv. in presence of 8 uM DNA measured at 30 to 100 degC by UV spectrophotometric analysis; assay type: nucleic-acid assay
Streptococcus pyogenes [11] = assay: Bactericidal activity against Streptococcus pyogenes ATCC 49399 assessed as reduction in bacterial viability incubated for 2 hrs in autoclaved distilled water followed by culturing on agar for overnight; assay type: functional; settings: ATCC 49399, 2 h
Serratia marcescens [12] = assay: Bactericidal activity against Serratia marcescens ATCC 13880 assessed as reduction in bacterial viability at 100 uM incubated for 2 hrs in autoclaved distilled water followed by culturing on agar for overnight; assay type: functional
Streptococcus pyogenes [13] = assay: Bactericidal activity against Streptococcus pyogenes ATCC 49399 assessed as reduction in bacterial viability at 100 uM incubated for 2 hrs in autoclaved distilled water followed by culturing on agar for overnight; assay type: functional; settings: for inhibition at 100 µM: ATCC 49399, 2 h
Bacillus cereus [14] = assay: Bactericidal activity against Bacillus cereus MTCC 131621 assessed as reduction in bacterial viability at 100 uM incubated for 2 hrs in autoclaved distilled water followed by culturing on agar for overnight; assay type: functional; settings: MTCC 131621, 2 h
Bacillus cereus [15] = assay: Bactericidal activity against Bacillus cereus MTCC 131621 assessed as reduction in bacterial viability incubated for 2 hrs in autoclaved distilled water followed by culturing on agar for overnight; assay type: functional; settings: MTCC 131621, 2 h
[16] = Cytotoxicity against human HDF cells assessed as reduction in cell viability at 50 uM incubated for 24 hrs by MTT assay relative to control; assay type: toxicity, cell-based; settings: HDF cells (NHDF cell line), read-out: INH
Serratia marcescens [17] = assay: Bactericidal activity against Serratia marcescens ATCC 13880 assessed as reduction in bacterial viability incubated for 2 hrs in autoclaved distilled water followed by culturing on agar for overnight; assay type: functional; settings: ATCC 13880, 2 h
Salmonella enterica [18] = assay: Bactericidal activity against Salmonella enterica ATCC 14028 assessed as reduction in bacterial viability incubated for 2 hrs in autoclaved distilled water followed by culturing on agar for overnight; assay type: functional; settings: ATCC 14028, 2 h
DNA [19] = assay: Binding affinity to d(5'-GCGACTAGTCGC-3')2 duplex DNA (unknown origin) assessed as change in free energy at 10 uM measured at 298K by isothermal titration calorimetry; assay type: nucleic-acid assay
DNA [20] = assay: Binding affinity to d(5'-GCGACTAGTCGC-3')2 duplex DNA (unknown origin) at 10 uM measured at 298K by isothermal titration calorimetry; assay type: nucleic-acid assay
DNA [21] = assay: Binding affinity to d(5'-GCGACTAGTCGC-3')2 duplex DNA (unknown origin) at DNA to ligand stoichiometric ratio of 0.5:1 measured at 298K by isothermal titration calorimetry; assay type: nucleic-acid assay
DNA [22] = assay: Binding affinity to d(5'-GCGACTAGTCGC-3')2 duplex DNA (unknown origin) assessed as change in entropy at 10 uM measured at 298K by isothermal titration calorimetry; assay type: nucleic-acid assay
DNA [23] = assay: Binding affinity to d(5'-GCGACTAGTCGC-3')2 duplex DNA (unknown origin) assessed as change in enthalpy at 10 uM measured at 298K by isothermal titration calorimetry; assay type: nucleic-acid assay

Structure (SMILES)	Activity (NHDF)	inhibition at 10 µM [1]	pKa [2]	inhibition (INH) (Bacillus cereus [3])	inhibition (INH) (Salmonella enterica [7])	ΔTm (DNA [10])	Activity (Serratia marcescens [12])	inhibition at 100 µM (Bacillus cereus [14])	cytotoxicity at 24 h, 50 µM [16]	other results
Cc1ccc(CSCCC(=O)Nc2cc(C(=O)Nc3cc(C(=O)NCCCN4CCOCC4)n(C)c3)n(C)c2)cc1	Non-Toxic	2.57%	7.01							
Cn1cc(NC(=O)c2cc(NC(=O)c3ccc(/C=C/c4ccccc4)cc3)cn2C)cc1C(=O)NCCCN1CCOCC1	Non-Toxic	94.1%	7.01	70%	44%	21 °C	inactive	87%		inhibition at 100 µM (Escherichia coli [4]): 50%; MIC90 (Escherichia coli [5]): 76 µM (≈ 45.2 µg/mL); MIC90 (Streptococcus pneumoniae [6]): 47 µM (≈ 28 µg/mL); inhibition at 100 µM (Streptococcus pneumoniae [8]): 100%; inhibition at 100 µM (Salmonella enterica [9]): 95%; MIC90 (Streptococcus pyogenes [11]): 55 µM (≈ 32.7 µg/mL); inhibition at 100 µM (Streptococcus pyogenes [13]): 67%; MIC50 (Bacillus cereus [15]): 37 µM (≈ 22 µg/mL); MIC90 (Bacillus cereus [15]): 34.3 µM (≈ 20.4 µg/mL)
CN(C)CCCNC(=O)c1cc(NC(=O)c2cc(NC(=O)c3ccc(/C=C/c4ccccc4)cc3)cn2C)cn1C	Toxic	64.1%	9.3							
Cn1cc(NC(=O)c2cc(NC(=O)CCSc3ccc4ccccc4c3)cn2C)cc1C(=O)NCCCN1CCOCC1		7.46%	7.01				inactive		20%	
Cn1cc(NC(=O)c2cc(NC(=O)c3ccc(C#Cc4ccccc4)cc3)cn2C)cc1C(=O)NCCCN1CCOCC1		97.7%	7.01	74%	30%	22 °C		98%	20%	inhibition at 100 µM (Escherichia coli [4]): 40%; MIC90 (Escherichia coli [5]): 106 µM (≈ 62.8 µg/mL); MIC90 (Streptococcus pneumoniae [6]): 53 µM (≈ 31.4 µg/mL); inhibition at 100 µM (Streptococcus pneumoniae [8]): 97%; inhibition at 100 µM (Salmonella enterica [9]): 90%; MIC90 (Streptococcus pyogenes [11]): 51 µM (≈ 30.2 µg/mL); MIC90 (Serratia marcescens [17]): 88 µM (≈ 52.2 µg/mL); inhibition at 100 µM (Serratia marcescens [12]; ATCC 13880, 2 h): 80%; MIC50 (Salmonella enterica [18]): 58 µM (≈ 34.4 µg/mL); MIC90 (Salmonella enterica [18]): 117 µM (≈ 69.1 µg/mL); inhibition at 100 µM (Streptococcus pyogenes [13]): 83%
Cc1ccc(CSCCC(=O)Nc2cc(C(=O)Nc3cc(C(=O)NCCCN(C)C)n(C)c3)n(C)c2)cc1		2.57%	9.3						20%	
CC(C)c1sc(NC(=O)c2cc(NC(=O)c3cc(NC(=O)c4nccn4C)cn3C)cn2C)nc1C(=O)NCCCN(C)C		24.1%	9.3	90%	77%	18 °C	inactive	63%	20%	Activity (Escherichia coli [4]): inactive; MIC90 (Streptococcus pneumoniae [6]): 67 µM (≈ 41.7 µg/mL); deltaG (DNA [19]): -8.41 kcal/mol; inhibition at 100 µM (Streptococcus pneumoniae [8]): 60%; inhibition at 100 µM (Salmonella enterica [9]): 60%; K (DNA [20]): 1.42 10^6/M; Activity (DNA [21]): Active; TdeltaS (DNA [22]): -12.2 kcal/mol; MIC50 (Salmonella enterica [18]): 64 µM (≈ 39.9 µg/mL); MIC90 (Salmonella enterica [18]): 101 µM (≈ 62.8 µg/mL); deltaH (DNA [23]): -20.6 kcal/mol; Activity (Streptococcus pyogenes [13]): inactive; MIC50 (Bacillus cereus [15]): 28 µM (≈ 17.4 µg/mL); MIC90 (Bacillus cereus [15]): 33.7 µM (≈ 21 µg/mL)
CN(C)CCCNC(=O)c1cc(NC(=O)c2cc(NC(=O)c3cc(NC(=O)c4cscn4)cn3C)cn2C)cn1C			9.3						20%	
CN(C)CCCNC(=O)c1cc(NC(=O)c2cc(NC(=O)c3cc(NC(=O)c4nccn4C)cn3C)cn2C)cn1C	Toxic	-3.79%	9.3							
CC(C)c1sc(NC(=O)c2cc(NC(=O)c3cc(NC(=O)c4cscn4)cn3C)cn2C)nc1C(=O)NCCCN(C)C		92.4%	9.3	40%	41%	20 °C	inactive	42%	20%	Activity (Escherichia coli [4]): inactive; deltaG (DNA [19]): -8.46 kcal/mol; Activity (Streptococcus pneumoniae [8]): inactive; K (DNA [20]): 2 10^6/M; Activity (DNA [21]): Active; TdeltaS (DNA [22]): -10.5 kcal/mol; MIC50 (Salmonella enterica [18]): 52 µM (≈ 32.5 µg/mL); MIC90 (Salmonella enterica [18]): 134 µM (≈ 83.9 µg/mL); deltaH (DNA [23]): -19 kcal/mol; Activity (Streptococcus pyogenes [13]): inactive
CN(C)CCCNC(=O)c1cc(NC(=O)c2cc(NC(=O)c3ccc(C#Cc4ccccc4)cc3)cn2C)cn1C		126%	9.3					59%		
